Measured values taken from patent US20190241943A1, “RAPID PHENOTYPING AND IDENTIFICATION OF MICROBES FROM A COMPLEX MICROBIAL COMMUNITY” (Duke University, priority 2018, published 2019).

How the values were obtained:
[1] = system: B. thetaiotamicron (ATCC strain 29148); experiment: Droplet monoculture growth on different carbon sources in defined medium (MicDrop); type: cell-based, Bacteroides thetaiotaomicron; conditions: for growth of the isolate in droplets compared to control defined medium without carbon source: B. theta isolate, defined medium with a single carbon source, endpoint DNA quantity (FIG. 4); for growth in droplets on carbohydrate (growth / no growth): B. thetaiotaomicron ATCC 29148 in microfluidic droplets, consistent with 96-well plates (FIG. 4)
Method: By using a defined media, a function of individual bacteria (in this case growth on a substrate of interest) can be determined. Bacteria were isolated from a fecal community of a healthy donor and cultured in defined medium. To identify carbon sources on which an individual isolated bacterium can grow, carbon sources of varying complexity were added individually to the defined media. Growth was measured at the endpoint, and the DNA was extracted, sequenced and quantified by qPCR as provided in Example 2. In this assay, the endpoint growth of an individual bacteria cultured in a defined medium with the addition of one carbon source was compared to the end point growth measurement of the same bacteria in the defined medium with only the addition of water. (FIG. 4). This comparison enables assessing the ability of an individual microbe to use a single carbon source for growth. As an example in FIG. 4, an isolate of the bacterial strain B. thetaiotamicron (ATCC® strain 29148) was cultured in droplets with defined medium containing the carbon source Pullalan, Levan, Lamanarin or no carbon source (control), and growth was compared. (FIG. 4). […] (FIG. 4). […] (FIG. 5).
(A) Microbial communities isolated from human stool samples were examined for carbon consumption in a custom microfluidic screen. Cells were restarted from frozen stock in mGAM (as above) and then minimal medium containing glucose and galactose (SIGMA®) as the sole carbon sources. Following determination of the loading concentration, the cell culture stocks were washed twice by centrifugation and resuspended in 2× minimal medium. Cells were filtered using a 50 μm filter (CELLTRICS®, SYSMEX®) to remove multi-cell clumps. The filtered cells suspension was then added to each sample formulation at the target concentration. Each sample was a 50:50 mixture of 1% carbon solution and 2× minimal medium. To prevent chip fouling, the oil inlet was equipped with 10 μm inline filters (P-276, IDEX®). Droplet generation in the anaerobic chamber was monitored using a bright field microscope (44347, CELESTRON®). Droplet cultures were stored 5 mL polypropylene tubes (352063, FALCON®) with the caps closed in an anaerobic incubator at 37° C. Following the second day of incubation, cultures were moved to a −20° C. freezer for storage prior to DNA extraction. Pre-processing of the droplet data designated samples with qPCR values below the mean no-carbon control as zero growth. Then, relative abundance data was converted to absolute abundance by multiplying each sample by the corresponding qPCR value. The median was then calculated across three replicate samples and matched no-carbon controls were subtracted from each sample. Finally, a growth threshold of 88% of maximum growth was applied, as determined from validation analysis (FIG. 15, Validation of prebiotic utilization assays)
To test whether the MicDrop method could be used to assay bacterial prebiotic metabolism (FIG. 12A), a previously characterized type strain Bacteroides thetaiotaomicron ATCC 29148 was loaded into microfluidic droplets and standard 96-well plates. Consistent with both prior studies and well-plate experiments disclosed herein, B. thetaiotaomicron ATCC 29148 grew in droplets on pullulan and levan, but not on lamanarin or a no carbohydrate control (FIG. 4). […] Using 96-well plate experiments as a reference (FIG. 12B, FIG. 18), the accuracy of the MicDrop prebiotic assay was determined to be 87% (Table 8). […]

gut bacteria = experiment: Xenobiotic growth screen of gut bacteria for beta-glucuronidases in droplets; type: cell-based, human gut bacteria; conditions: defined media, glucose positive control, water negative control (FIG. 6)
From the text: Thus, in certain aspects of this disclosure, the methods of the invention can be used to identify or screen bacteria from the gut that can utilize, and thus inactivate, specific xenobiotic compounds. In certain embodiments of this aspect, the methods of the invention can be used to screen gut bacteria for beta-glucuronidases, which are present in bacteria that can inactivate certain man-made therapeutics. […] (FIG. 6). […] Thus, in some embodiments, the present disclosure provides for identification of bacterial taxa that contain putative beta-glucuronidases. Using the method disclosed herein, bacteria are isolated by encapsulation in droplets of defined media with or without a specific xenobiotic. DNA is sampled from the encapsulated droplets at one or more set time points during incubation, and absolute growth is then computed as previously disclosed herein. […] To determine gut bacterial strain response to xenobiotics, gut bacteria were screened for beta-glucuronidases, which are present in bacteria that can inactivate certain man-made therapeutics. […] (FIG. 6). […] Thus, the assay identified bacterial taxa that contain putative beta-glucuronidases. Glucose and water are positive and negative controls, respectively. (FIG. 6).

Row | Compound | growth of the isolate in droplets compared to control defined medium without carbon source [1] | growth in droplets on carbohydrate (growth / no growth) [1] | bacterial growth on substrate (gut bacteria)
1 | pullulan [Pullalan] | greater growth | grew | –
2 | lamanarin | the same or slightly worse | – | –
3 | O=C[C@H](O)[C@@H](O)[C@H](O)[C@H](O)C(=O)O [glucuronic acid] | – | – | bacterial growth
4 | O=C(O)[C@H]1O[C@@H](Oc2ccc([N+](=O)[O-])cc2)[C@H](O)[C@@H](O)[C@@H]1O [PNPG, 4-Nitrophenyl-Beta-D-glucuronic acid, reference compound] | – | – | bacterial growth
5 | levan | greater growth | grew | –
